In patent US20240215576A1, “HEAT-RESISTANT MOLD GROWTH INHIBITOR, FOOD AND DRINK IN WHICH GROWTH OF HEAT-RESISTANT MOLD IS INHIBITED, AND METHOD FOR INHIBITING GROWTH OF HEAT-RESISTANT MOLD” (NIPPON SHINYAKU CO., LTD., priority 2021, published 2024):
Counter-ions that a name gives are not always drawn.

Experiments:
[1] = test system: N. primulina; assay: Growth of N. primulina in Trypticase soy broth medium stored 7 days at 25° C.; type: cell-based, Neosartorya primulina; conditions: for Growth of N. primulina after lapse of 7 days under storage at 25° C.: concentration 1000 ppm; for growth inhibition effect against N. primulina: 1000 ppm
Description: (§1) Diethyl fumarate and 2-decenoic acid were prepared for use in Examples. In addition, the following components reported to have a growth inhibition effect against normal mold (non-heat-resistant mold) were prepared for use in Comparative Examples: palmitic acid, trans-anethole, benzyl alcohol, cinnamic acid, hinokitiol, salicylic acid, hexanal, 2-mercapto benzothiazole, p-cymene, 1,8-cineole, α-pinene, estragole, 4-hydroxy-3,5-dimethoxybenzoic acid, and linalyl acetate. Then, each component was added to a medium of Trypticase soy broth such that the concentration of each component was as shown in Table 3 below.
(§2) These media were stored for 7 days under an atmosphere at 25° C. […] In Table, those showing the growth are represented by “+,” and those showing no growth are represented by “−.”

[2] = test system: B. fulva; assay: Growth of B. fulva in Trypticase soy broth medium stored 7 days at 25° C.; type: cell-based, Byssochlamys fulva; conditions: for Growth of B. fulva after lapse of 7 days under storage at 25° C.: concentration 1000 ppm; for growth inhibition effect against B. fulva: 1000 ppm
Description: as §1, §2

[3] = test system: B. fulva; assay: Growth of B. fulva in tomato juice stored at 25° C.; type: cell-based, Byssochlamys fulva; conditions: for generation of B. fulva after the lapse of 14 days: 25° C., high concentration of the active component (270 ppm); for Growth of B. fulva, 3 days / Growth of B. fulva, 5 days / Growth of B. fulva, 7 days / Growth of B. fulva, 10 days / Growth of B. fulva, 14 days: storage at 25° C.
Description: Diethyl fumarate or 2-decenoic acid was added to tomato juice (100% pure, salt-free) such that the concentration of the component was as shown in Table 1 below. […] In Table 1, those showing the growth of B. fulva are represented by “+,” and those showing no growth are represented by “−.”

[4] = test system: N. primulina; assay: Growth of N. primulina in tomato juice stored at 25° C.; type: cell-based, Neosartorya primulina; set-up: key to Growth of N. primulina, 5 days / Growth of N. primulina, 7 days / Growth of N. primulina, 10 days / Growth of N. primulina, 14 days: those showing the growth of N. primulina are represented by “+,”; those showing no growth are represented by “−.”; conditions: for growth inhibition effect against N. primulina after the lapse of 14 days: high concentration of the active component (270 ppm); for Growth of N. primulina, 3 days / Growth of N. primulina, 5 days / Growth of N. primulina, 7 days / Growth of N. primulina, 10 days / Growth of N. primulina, 14 days: storage at 25° C.
Description: Diethyl fumarate or 2-decenoic acid was added to tomato juice (100% pure, salt-free) such that the concentration of the component was as shown in Table 2 below. […] In Table 2, those showing the growth of N. primulina are represented by “+,” and those showing no growth are represented by “−.”

## OCc1ccccc1 [Benzyl alcohol]
[1]
  Growth of N. primulina after lapse of 7 days under storage at 25° C.: +
[2]
  Growth of B. fulva after lapse of 7 days under storage at 25° C.: +

## O=C(O)c1ccccc1O [Salicylic acid]
[1]
  Growth of N. primulina after lapse of 7 days under storage at 25° C.: +
[2]
  Growth of B. fulva after lapse of 7 days under storage at 25° C.: +

## CC1=CCC2CC1C2(C)C (stereo not drawn) [α-Pinene]
[1]
  Growth of N. primulina after lapse of 7 days under storage at 25° C.: +
[2]
  Growth of B. fulva after lapse of 7 days under storage at 25° C.: +

## CCOC(=O)/C=C/C(=O)OCC [Diethyl fumarate, diethyl (E)-but-2-enedioate]
[3]
  generation of B. fulva after the lapse of 14 days: no generation
[3]; 70 ppm
  Growth of B. fulva, 3 days: −
  Growth of B. fulva, 5 days: −
  Growth of B. fulva, 7 days: −
  Growth of B. fulva, 10 days: +
  Growth of B. fulva, 14 days: +
[3]; 270 ppm
  Growth of B. fulva, 3 days: −
  Growth of B. fulva, 5 days: −
  Growth of B. fulva, 7 days: −
  Growth of B. fulva, 10 days: −
  Growth of B. fulva, 14 days: −
[4]; 25° C., 10 days
  generation of N. primulina after the lapse of 10 days: no generation
[4]; 25° C.
  growth inhibition effect against N. primulina after the lapse of 14 days: the effect is maintained
[4]; 70 ppm
  Growth of N. primulina, 3 days: −
  Growth of N. primulina, 5 days: −
  Growth of N. primulina, 7 days: −
  Growth of N. primulina, 14 days: +
[4]; 70 ppm, 10 days
  Growth of N. primulina, 10 days: −
[4]; 270 ppm
  Growth of N. primulina, 3 days: −
  Growth of N. primulina, 5 days: −
  Growth of N. primulina, 7 days: −
  Growth of N. primulina, 14 days: −
[4]; 270 ppm, 10 days
  Growth of N. primulina, 10 days: −
[1]
  growth inhibition effect against N. primulina: exhibit the growth inhibition effect
  Growth of N. primulina after lapse of 7 days under storage at 25° C.: −
[2]
  growth inhibition effect against B. fulva: exhibit the growth inhibition effect
  Growth of B. fulva after lapse of 7 days under storage at 25° C.: −

## COc1cc(C(=O)O)cc(OC)c1O [4-Hydroxy-3,5-dimethoxybenzoic acid]
[1]
  Growth of N. primulina after lapse of 7 days under storage at 25° C.: +
[2]
  Growth of B. fulva after lapse of 7 days under storage at 25° C.: +

## Cc1ccc(C(C)C)cc1 [p-Cymene]
[1]
  Growth of N. primulina after lapse of 7 days under storage at 25° C.: +
[2]
  Growth of B. fulva after lapse of 7 days under storage at 25° C.: +

## CCCCCCCCCCCCCCCC(=O)O [Palmitic acid]
[1]
  Growth of N. primulina after lapse of 7 days under storage at 25° C.: +
[2]
  Growth of B. fulva after lapse of 7 days under storage at 25° C.: +

## CC12CCC(CC1)C(C)(C)O2 [1,8-Cineole]
[1]
  Growth of N. primulina after lapse of 7 days under storage at 25° C.: +
[2]
  Growth of B. fulva after lapse of 7 days under storage at 25° C.: +

## CCCCCC=O [Hexanal]
[1]
  Growth of N. primulina after lapse of 7 days under storage at 25° C.: +
[2]
  Growth of B. fulva after lapse of 7 days under storage at 25° C.: +

## C/C=C/c1ccc(OC)cc1 [Trans-anethole]
[1]
  Growth of N. primulina after lapse of 7 days under storage at 25° C.: +
[2]
  Growth of B. fulva after lapse of 7 days under storage at 25° C.: +

## CCCCCCC/C=C/C(=O)O [2-Decenoic acid, (E)-dec-2-enoic acid]
[3]
  generation of B. fulva after the lapse of 14 days: no generation
[3]; 70 ppm
  Growth of B. fulva, 3 days: −
  Growth of B. fulva, 5 days: −
  Growth of B. fulva, 7 days: −
  Growth of B. fulva, 10 days: +
  Growth of B. fulva, 14 days: +
[3]; 270 ppm
  Growth of B. fulva, 3 days: −
  Growth of B. fulva, 5 days: −
  Growth of B. fulva, 7 days: −
  Growth of B. fulva, 10 days: −
  Growth of B. fulva, 14 days: −
[4]; 25° C.
  growth inhibition effect against N. primulina after the lapse of 14 days: the effect is maintained
[4]; 70 ppm
  Growth of N. primulina, 3 days: −
  Growth of N. primulina, 5 days: +
  Growth of N. primulina, 7 days: +
  Growth of N. primulina, 14 days: +
[4]; 70 ppm, 10 days
  Growth of N. primulina, 10 days: +
[4]; 270 ppm
  Growth of N. primulina, 3 days: −
  Growth of N. primulina, 5 days: −
  Growth of N. primulina, 7 days: −
  Growth of N. primulina, 14 days: −
[4]; 270 ppm, 10 days
  Growth of N. primulina, 10 days: −
[1]
  growth inhibition effect against N. primulina: exhibit the growth inhibition effect
  Growth of N. primulina after lapse of 7 days under storage at 25° C.: −
[2]
  growth inhibition effect against B. fulva: exhibit the growth inhibition effect
  Growth of B. fulva after lapse of 7 days under storage at 25° C.: −

## Sc1nc2ccccc2s1 [2-Mercapto benzothiazole]
[1]
  Growth of N. primulina after lapse of 7 days under storage at 25° C.: +
[2]
  Growth of B. fulva after lapse of 7 days under storage at 25° C.: +

## CC(C)c1cccc(=O)c(O)c1 [Hinokitiol]
[1]
  Growth of N. primulina after lapse of 7 days under storage at 25° C.: +
[2]
  Growth of B. fulva after lapse of 7 days under storage at 25° C.: +

## C=CCc1ccc(OC)cc1 [Estragole]
[1]
  Growth of N. primulina after lapse of 7 days under storage at 25° C.: +
[2]
  Growth of B. fulva after lapse of 7 days under storage at 25° C.: +

## O=C(O)C=Cc1ccccc1 [Cinnamic acid]
[1]
  Growth of N. primulina after lapse of 7 days under storage at 25° C.: +
[2]
  Growth of B. fulva after lapse of 7 days under storage at 25° C.: +

## C=CC(C)(CCC=C(C)C)OC(C)=O (stereo not drawn) [Linalyl acetate]
[1]
  Growth of N. primulina after lapse of 7 days under storage at 25° C.: +
[2]
  Growth of B. fulva after lapse of 7 days under storage at 25° C.: +
